We go through 25 compounds from patent publication US12264159B2, “Functionalized heterocycles as antiviral agents” (Enanta Pharmaceuticals, Inc., priority 2018, dated 2025).

Some results are limits rather than exact numbers.

A short description of data set [1]: Compound induced cellular toxicity in HepG2 cells, ATPlite 1Step. The format is cell-based. The settings on record: human, three days exposure, 50% reduction of total ATP vs no drug controls. As to the method:
At day 3, post seeding cells are treated with ATPlite 1Step according to the manufacturer's instructions.
On the technique in general: Cellular ATP, detected with luciferase, serves as a proxy for viable cell number.

For the next data set, the system named is HBV in 2.2.15 cells. In words: 2.2.15 cells: viral product in cell lysates quantified via quantitative real time PCR. The format is cell-based, hepatitis B virus (HBV). The settings on record: Hepatitis B virus, 120 h, day 5 post treatment, 50% reduction of viral product vs no drug controls, readout (qPCR, HBsAg or HBeAg) not specified for the column. An outline of the steps:
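HBV product was measured at day 5 by lysate qPCR or by supernatant HBsAg/HBeAg ELISA, in 2.2.15 cells seeded at 35,000/well and exposed to 5-fold compound dilution series (0.5% DMSO). EC50 is 50% reduction of viral product relative to untreated controls.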
(Real-time PCR tracks product formation cycle by cycle.)

Usually CC50 stands for the concentration giving 50% cytotoxicity. Lower therefore signals greater toxicity to the cells. By EC50 is commonly meant the concentration giving half of the maximal effect. Compound `CC(C)(C)[C@@H]1Cn2ncc(-c3cccc(OC(F)(F)F)c3)c2-c2cc(=O)c(C(=O)O)cn21` [Example 116, (R)-6-(tert-butyl)-10-oxo-1-(3-(trifluoromethoxy)phenyl)-5,6-dihydro-10H-pyrazolo[1,5-a]pyrido[2,1-c]pyrazine-9-carboxylic acid] displayed a CC50 at 3 days in data set [1] of over 25 µM. Besides, the EC50 with HBV in 2.2.15 cells was under 0.1 µM.

`CC(C)(C)[C@@H]1Cn2nc(C3CC3)c(-c3cccc(F)c3)c2-c2cc(=O)c(-c3ncn[nH]3)cn21` [Example 197, (R)-6-(tert-butyl)-2-cyclopropyl-1-(3-fluorophenyl)-9-(1H-1,2,4-triazol-5-yl)-5,6-dihydro-10H-pyrazolo[1,5-a]pyrido[2,1-c]pyrazin-10-one] registered a half-maximal cytotoxic concentration (CC50) at 3 days in data set [1] of over 25 µM. In the data set on HBV in 2.2.15 cells, the EC50 was under 0.1 µM.

`CC(C)[C@@H]1Cn2nc(C3CC3)c(-c3ccccc3F)c2-c2cc(=O)c(C(=O)O)cn21` [Example 129, (R)-2-cyclopropyl-1-(2-fluorophenyl)-6-isopropyl-10-oxo-5,6-dihydro-10H-pyrazolo[1,5-a]pyrido[2,1-c]pyrazine-9-carboxylic acid] showed a 50% cytotoxic concentration (CC50) at 3 days in data set [1] of over 25 µM. The compound further registered a half-maximal effective concentration (EC50) with HBV in 2.2.15 cells of under 0.1 µM.

Take `COc1cccc(-c2c(C3CC3)nn3c2-c2cc(=O)c(C(=O)O)cn2[C@H](C(C)(C)C)C3)c1` [Example 157, (R)-6-(tert-butyl)-2-cyclopropyl-1-(3-methoxyphenyl)-10-oxo-5,6-dihydro-10H-pyrazolo[1,5-a]pyrido[2,1-c]pyrazine-9-carboxylic acid]: in data set [1], the CC50 at 3 days is over 25 µM. This compound registered a half-maximal effective concentration (EC50) in the data set with HBV in 2.2.15 cells of under 0.1 µM.

Regarding `COc1ccc(-c2cc3n(n2)C[C@@H](C(C)(C)C)n2cc(C(=O)O)c(=O)cc2-3)cc1` [Example 10, (R)-6-(tert-butyl)-2-(4-methoxyphenyl)-10-oxo-5,6-dihydro-10H-pyrazolo[1,5-a]pyrido[2,2-c]pyrazine-12-carboxylic acid], the CC50 at 3 days in data set [1] is over 25 µM. In addition, in the data set on HBV in 2.2.15 cells, the EC50 is under 0.1 µM.

With `CC(C)(C)[C@@H]1Cn2nc(C3CC3)c(-c3cccc4scnc34)c2-c2cc(=O)c(C(=O)O)cn21` [Example 164, (R)-1-(benzo[d]thiazol-4-yl)-6-(tert-butyl)-2-cyclopropyl-10-oxo-5,6-dihydro-10H-pyrazolo[1,5-a]pyrido[2,1-c]pyrazine-9-carboxylic acid], in data set [1], the CC50 at 3 days was over 25 µM. Moreover, the half-maximal effective concentration (EC50) in the data set with HBV in 2.2.15 cells was under 0.1 µM.

Take `C[C@@H]1Cn2nc(-c3cccc(F)c3)c(-c3cccc(F)c3)c2-c2cc(=O)c(C(=O)O)cn21` [Example 205, (R)-1,2-bis(3-fluorophenyl)-6-methyl-10-oxo-5,6-dihydro-10H-pyrazolo[1,5-a]pyrido[2,1-c]pyrazine-9-carboxylic acid]: the cytotoxic concentration (CC50) at 3 days in data set [1] lay within 10 to 25 µM. In the data set with HBV in 2.2.15 cells, this compound returned an EC50 of under 0.1 µM.

In data set [1], `CC(C)(C)[C@@H]1Cn2nc(-c3ccc(F)c(F)c3F)cc2-c2cc(=O)c(C(=O)O)cn21` [Example 44, (R)-6-(tert-butyl)-10-oxo-2-(2,3,4-trifluorophenyl)-5,6-dihydro-10H-pyrazolo[1,5-a]pyrido[2,2-c]pyrazine-12-carboxylic acid] registered a CC50 at 3 days of over 25 µM. This compound also yielded an EC50 with HBV in 2.2.15 cells of under 0.1 µM.

For `O=C(O)c1cn2c(cc1=O)-c1c(-c3cccc(F)c3)c(-c3cccc(F)c3)nn1CC2` [Example 201, 1,2-bis(3-fluorophenyl)-10-oxo-5,6-dihydro-10H-pyrazolo[1,5-a]pyrido[2,1-c]pyrazine-9-carboxylic acid], the CC50 at 3 days in data set [1] was over 25 µM. The compound further returned an EC50 with HBV in 2.2.15 cells of under 0.1 µM.

Compound `COc1ccc(-c2cnn3c2-c2cc(=O)c(C(=O)O)cn2[C@H](C(C)(C)C)C3)cc1` [Example 114, (R)-6-(tert-butyl)-1-(4-methoxyphenyl)-10-oxo-5,6-dihydro-10H-pyrazolo[1,5-a]pyrido[2,1-c]pyrazine-9-carboxylic acid] displayed a half-maximal cytotoxic concentration (CC50) at 3 days in data set [1] of over 25 µM. In the data set on HBV in 2.2.15 cells, this compound yielded an EC50 of under 0.1 µM.

Consider `CC(C)(C)[C@@H]1Cn2nc(-c3cc(F)ccc3C#N)cc2-c2cc(=O)c(C(=O)O)cn21` [Example 42, (R)-6-(tert-butyl)-2-(2-cyano-5-fluorophenyl)-10-oxo-5,6-dihydro-10H-pyrazolo[1,5-a]pyrido[2,2-c]pyrazine-12-carboxylic acid], for which, in data set [1], the CC50 at 3 days is over 25 µM. In addition, the 50% effective concentration (EC50) with HBV in 2.2.15 cells was under 0.1 µM.

Regarding `CC(C)[C@@H]1Cn2nc(-c3ccc(F)cc3)c(-c3ccc(F)cc3)c2-c2c(F)c(=O)c(C(=O)O)cn21` [Example 187, (R)-11-fluoro-1,2-bis(4-fluorophenyl)-6-isopropyl-10-oxo-5,6-dihydro-10H-pyrazolo[1,5-a]pyrido[2,1-c]pyrazine-9-carboxylic acid], the CC50 at 3 days in data set [1] was in the range of 10 to 25 µM. In the data set on HBV in 2.2.15 cells, the concentration for a half-maximal effect (EC50) is under 0.1 µM.

Consider `CC(C)[C@@H]1Cn2nc(C3CC3)c(-c3cccc(O)c3)c2-c2cc(=O)c(C(=O)O)cn21` [Example 142, (R)-2-cyclopropyl-1-(3-hydroxyphenyl)-6-isopropyl-10-oxo-5,6-dihydro-10H-pyrazolo[1,5-a]pyrido[2,1-c]pyrazine-9-carboxylic acid], for which the 50% cytotoxic concentration (CC50) at 3 days in data set [1] was over 25 µM. Also, the 50% effective concentration (EC50) with HBV in 2.2.15 cells is under 0.1 µM.

For the compound `CC(C)(C)[C@@H]1Cn2nc(-c3ccc(C(F)(F)F)cc3)cc2-c2cc(=O)c(C(=O)O)cn21` [Example 9, (R)-6-(tert-butyl)-10-oxo-2-(4-(trifluoromethyl)phenyl)-5,6-dihydro-10H-pyrazolo[1,5-a]pyrido[2,2-c]pyrazine-12-carboxylic acid], in data set [1], the CC50 at 3 days was over 25 µM. Moreover, the EC50 with HBV in 2.2.15 cells is under 0.1 µM.

The compound `COc1cccc(C)c1-c1cc2n(n1)C[C@@H](C(C)(C)C)n1cc(C(=O)O)c(=O)cc1-2` [Example 49, (R)-6-(tert-butyl)-2-(2-methoxy-6-methylphenyl)-10-oxo-5,6-dihydro-10H-pyrazolo[1,5-a]pyrido[2,2-c]pyrazine-12-carboxylic acid] had a 50% cytotoxic concentration (CC50) at 3 days in data set [1] of over 25 µM. The EC50 in the data set with HBV in 2.2.15 cells fell in the range of 0.2 to 1 µM.

As to `COc1cccc(-c2cc3n(n2)C[C@@H](C(C)(C)C)n2cc(C(=O)O)c(=O)cc2-3)c1` [Example 11, (R)-6-(tert-butyl)-2-(3-methoxyphenyl)-10-oxo-5,6-dihydro-10H-pyrazolo[1,5-a]pyrido[2,2-c]pyrazine-12-carboxylic acid], the cytotoxic concentration (CC50) at 3 days in data set [1] was over 25 µM. The compound also registered an EC50 in the data set with HBV in 2.2.15 cells of under 0.1 µM.

In data set [1], `Cc1ccc(-c2c(C3CC3)nn3c2-c2cc(=O)c(C(=O)O)cn2[C@H](C(C)(C)C)C3)cc1` [Example 154, (R)-6-(tert-butyl)-2-cyclopropyl-10-oxo-1-(p-tolyl)-5,6-dihydro-10H-pyrazolo[1,5-a]pyrido[2,1-c]pyrazine-9-carboxylic acid] displayed a CC50 at 3 days of over 25 µM. In the data set with HBV in 2.2.15 cells, the concentration for a half-maximal effect (EC50) is under 0.1 µM.

As to `CC(C)[C@@H]1Cn2nc(-c3ccc(F)cc3)c(-c3ccc(F)cc3)c2-c2cc(=O)c(C(=O)O)cn21` [Example 180, (R)-1,2-bis(4-fluorophenyl)-6-isopropyl-10-oxo-5,6-dihydro-10H-pyrazolo[1,5-a]pyrido[2,1-c]pyrazine-9-carboxylic acid], the 50% cytotoxic concentration (CC50) at 3 days in data set [1] was in the range of 10 to 25 µM. For the same compound, in the data set on HBV in 2.2.15 cells, the EC50 was under 0.1 µM.

As for `CC(C)(C)[C@@H]1Cn2nc(-c3cnc(NC4CC4)nc3)cc2-c2cc(=O)c(C(=O)O)cn21` [Example 15, (R)-6-(tert-butyl)-2-(2-(cyclopropylamino)pyrimidin-5-yl)-10-oxo-5,6-dihydro-10H-pyrazolo[1,5-a]pyrido[2,2-c]pyrazine-12-carboxylic acid], the 50% cytotoxic concentration (CC50) at 3 days in data set [1] is over 25 µM. In the data set with HBV in 2.2.15 cells, this compound came in with an EC50 of under 0.1 µM.

With `CC(C)(C)[C@@H]1Cn2nc(-c3ccccc3C#N)cc2-c2cc(=O)c(C(=O)O)cn21` [Example 40, (R)-6-(tert-butyl)-2-(2-cyanophenyl)-10-oxo-5,6-dihydro-10H-pyrazolo[1,5-a]pyrido[2,2-c]pyrazine-12-carboxylic acid], the CC50 at 3 days in data set [1] is over 25 µM. The compound further came in with a concentration giving a half-maximal response (EC50) in the data set with HBV in 2.2.15 cells of under 0.1 µM.

Compound `C[C@@H]1Cn2nc(-c3ccc(F)cc3)c(-c3ccc(F)cc3)c2-c2cc(=O)c(C(=O)O)cn21` [Example 204, (R)-1,2-bis(4-fluorophenyl)-6-methyl-10-oxo-5,6-dihydro-10H-pyrazolo[1,5-a]pyrido[2,1-c]pyrazine-9-carboxylic acid] gave a CC50 at 3 days in data set [1] of over 25 µM. Moreover, in the data set on HBV in 2.2.15 cells, the EC50 is under 0.1 µM.

`CC(C)(C)[C@@H]1Cn2nc(-c3ccc(F)c(F)c3)cc2-c2cc(=O)c(C(=O)O)cn21` [Example 60, (R)-6-(tert-butyl)-2-(3,4-difluorophenyl)-10-oxo-5,6-dihydro-10H-pyrazolo[1,5-a]pyrido[2,2-c]pyrazine-12-carboxylic acid] displayed a half-maximal cytotoxic concentration (CC50) at 3 days in data set [1] of over 25 µM. In the data set with HBV in 2.2.15 cells, the concentration giving a half-maximal response (EC50) is under 0.1 µM.

`COc1cccc(F)c1-c1cc2n(n1)C[C@@H](C(C)(C)C)n1cc(C(=O)O)c(=O)cc1-2` [Example 50, (R)-6-(tert-butyl)-2-(2-fluoro-6-methoxyphenyl)-10-oxo-5,6-dihydro-10H-pyrazolo[1,5-a]pyrido[2,2-c]pyrazine-12-carboxylic acid] returned a CC50 at 3 days in data set [1] of over 25 µM. Moreover, the half-maximal effective concentration (EC50) with HBV in 2.2.15 cells lay in the range of 0.2 to 1 µM.

In the case of `CC(C)(C)[C@@H]1Cn2nc(-c3c(F)cccc3Cl)cc2-c2cc(=O)c(C(=O)O)cn21` [Example 65, (R)-6-(tert-butyl)-2-(2-chloro-6-fluorophenyl)-10-oxo-5,6-dihydro-10H-pyrazolo[1,5-a]pyrido[2,2-c]pyrazine-12-carboxylic acid], the CC50 at 3 days in data set [1] is over 25 µM. Moreover, the concentration for a half-maximal effect (EC50) in the data set with HBV in 2.2.15 cells was under 0.1 µM.

Regarding `CC(C)(C)[C@@H]1Cn2nc(-c3ccc(F)cc3)c(-c3ccc(F)cc3)c2-c2cc(=O)c(-c3ncn[nH]3)cn21` [Example 194, (R)-6-(tert-butyl)-1,2-bis(4-fluorophenyl)-9-(1H-1,2,4-triazol-5-yl)-5,6-dihydro-10H-pyrazolo[1,5-a]pyrido[2,1-c]pyrazin-10-one], the CC50 at 3 days in data set [1] fell in the range of 10 to 25 µM. This compound also yielded an EC50 in the data set with HBV in 2.2.15 cells of under 0.1 µM.
